# Measured values: patent US7745465B2, “Method of enhancing cellular production of molecular chaperone, hydroxylamine derivatives useful for enhancing the chaperone production and the preparation thereof” (CytRx Corporation, priority 1995, dated 2010)
# Legend:
# GRP-94 = assay: Level of GRP-94 in STZ diabetic rat liver (Western blot); type: in vivo; conditions: for relative amount of GRP-94: rats diabetic for 4 weeks
# HaCaT cells = assay: Protection of HaCaT keratinocytes against 48° C. heat exposure (viability); type: cell-based, human
# Excerpt: HaCaT cell line is a spontaneously immortalized, ancuploid human keratinocyte cell line derived from normal human adult skin (Boukamp et al., J. Cell Biol. 106:761-771 (1988)), HaCaT is a cell line with full epidermal differentiation capacity, with normal keratinization and with nontumorogenic character. This rapidly multiplying keratinocyte line with high ditharnol sensitivity is also characterized by the presence of steroid receptors. HaCaT cells (4×10^5 cells per Petri-dish with a diameter of 35 mm) were seeded and grown in DMEM supplemented with 5% fetal calf serum (Gibco, Cat. No. 011-6290H) under a humidified atmosphere of 5% CO2 at 37° C. 24 hours after plating, the cultures were rinsed with PBS and treated by heat or light.
# The confluent cultures of the cells were exposed to heat (42, 44, 46, 47, 48° C.) or UV light (UVA I, 2, 4, 6 J/cm^2). Heat exposure was provided in circulating water baths. As a UV light source, Waldmann PUVA 4000 was used with an energy spectrum of the final output between 320 an 390 nm, peaking at 365 nm. The energy output was monitored by an IL-1700 radiometer equipped with UVA and UVB sensor.
# The morphology of the cells was monitored using phase contrast microscopy (Opton Axioplan Microscope, with Plan-Apochromat Ph phase contrast objectives). […]
# TNF treated WEHI 164 = assay: Protection of cells against cytotoxic cytokines (TNF); type: cell-based; conditions: WEHI 164 (and other mammalian) cells
# HSP-70 = assay: Myocardial HSP-70 protein content in isolated rat hearts (Western blot)
# Protocol: In separate experiments the effects of heat stress, ischemia, N-[2-hydroxy-3-(1-piperidinyl)propoxy]-3-pyridine carboximidoyl chloride maleate and their combination were studied on myocardial HSP-70 protein content. Isolated hearts were subjected to 15 min. heat-stress (42° C.), global normothermic ischemia, and N-[2-hydroxy-3-[…](1-piperidinyl)propoxy]-3-pyridine carboximidoyl chloride maleate perfusion followed by 120 and 180 min. reperfusion, respectively.
# [1] = test system: Streptozotocin-induced diabetic (STZ) rats; assay: Wound healing of thermal wounds in STZ-diabetic rats; type: in vivo, rat; conditions: 4% containing cream, topical
# Protocol: (§1) (ii) Streptozotocin-induced diabetic (STZ) rats with partial-to full thickness thermal wounds created on bilateral thoracic depilated skin by electroheating probe (3 mm of diameter; 60° C.; for 30, 60 and 90 sec.), treated by topical application of 1%, 2% or 4% N-[2-hydroxy-3-(1-piperidinyl)propoxy]-3-piridinecarboximidoyl chloride maleate containing cream or vehicle were used to determine the wound healing in form of self-control, side to side comparison. Wound closure was recorded photographically and using the digital epiluminescence microscopic technique. Wound areas were measured by planimetry 48 h and 21 days after heat injury. Level of hsp72 of skin biopsy samples was determined using Western blot analysis.
# Hsp72 [2] = assay: hsp72 level of skin biopsy samples of STZ-diabetic rats (Western blot); type: in vivo, rat; conditions: 4% containing cream, topical
# Protocol: as §1
# hsp72 [3] = assay: Heat stress induced hsp72 level in U-937 leukemia cells; type: cell-based, human; conditions: U-937 cells, 10^−5 M, treatment preceded heat stress
# Protocol: (§2) From the applied cells the 3T3 and L-929 mouse fibroblasts were cultured in MEM medium and grew in monolayer, the U-937 human leukemia cells were maintained in RPMI-1640 medium, in suspension culture, while the HeLa human epithelial cells were cultured in DMEM medium and in monolayer form. Cell cultures were maintained as described in example 6.2 (a) with the difference that cells were cultured in the above mentioned culture mediums.
# (§3) Experiments were carried out applying stress before and after the drug treatment. Stress was provoked by heat, by chemical agent, HgCl2 treatment. The test compounds were applied in the treatments at the 10^−5 M concentration.
# The experiments on 3T3 cell applying heat stress were performed as described in the 6.2. (c) point of example 6, with the difference that stress was induced by a 30 min. exposure at 43° C. temperature and treatment with the test compounds was performed 15 min. before or 100 min. after the heat stress.
# Experiments using heat shock on U-937 leukemia and L-929 mouse fibroblast cells were carried out similarly as described above, but drug treatments in these tests always preceded the heat stress. The compound N-[2-hydroxy-3-(1-piperidinyl)-propoxy]-3-pyridine-carboximidoyl chloride maleate was tested at the 10^−5 M concentration under these experimental conditions.
# hsp72 [4] = assay: HgCl2 stress induced hsp72 level in U-937 cells; type: cell-based, human; conditions: 10^−5 M, 0.5 μg/ml HgCl2, 6 hours
# Protocol: as §2, §3
# These experiments were performed on HeLa, human epithelial and U-937, human leukemia cells using HgCl2 to induce stress response. Drug treatment was carried out before cells were exposed to the stress. Test cultures were prepared and treatments were performed as in the experiments with the 3T3 cells. After the drug treatment cells were incubated at 37° C. for 15 min. than all the cultures except two (non stressed control) were exposed to 0.5 μg/ml concentration of HgCl2 and the incubation was followed. The induced amount of hsp72 was measured 6 hours after the exposure to stress.
smiles,measurement,setting,value
O=C(O)/C=C\C(=O)O.OC(CON=C(Cl)c1cccnc1)CN1CCCCC1 (stereo not shown) [N-[2-hydroxy-3-(1-piperidinyl)-propoxy]3-pyridinecarboximidoyl chloride maleate],decrease of relative GRP-94 content,"GRP-94; 1 week and 2-weeks diabetic animals, 20 mg/kg/day p.o.",completely be reverted
same,levels of GRP-94 compared to the control state,"GRP-94; in combination with insulin, 1 week and 2-weeks samples",almost doubled
same,relative amount of GRP-94,GRP-94; compound alone,no significant alteration
same,relative amount of GRP-94,GRP-94; insulinized and treated with the compound,recovery of GRP-94 to the control level
same,increase in viability,"HaCaT cells; combined treatment with 42° C. and compound, 24 hours after 48° C.",140%
same,cell viability increased to,"HaCaT cells; pre-treatment 5×10^-5 M for one hour, 24 hours after the 48° C. treatment",84%
same,survival rate of TNF treated cells,TNF treated WEHI 164,increased the survival rate
same,myocardial HSP-70 content,HSP-70; compound alone,did not increase myocardial HSP-70 content
same,myocardial HSP-70 content,HSP-70; ischemia in the presence of 20 mg/l,increased to approximately the same level as found after heat stress
same,wound closure compared to vehicle control,[1],accelerated wound closure
same,hsp72 level in skin biopsy samples compared to vehicle control,Hsp72 [2],elevated the hsp72 level
same,increase in the heat stress induced hsp72 level,hsp72 [3],more than 50%
same,increase of the stress induced hsp72 level relative to the stress exposed control,hsp72 [4],more than 20%
